Test results reported in patent US20230200216A1, “ORGANIC LIGHT-EMITTING DEVICE” (CANON KABUSHIKI KAISHA, priority 2021, published 2023).

Experiment: Sublimability: decomposition temperature (TG/DTA, 5% mass loss) minus sublimation temperature
Assay type: physicochemical
Conditions: 5% mass reduction, sublimation: Ar flow, vacuum 1×10^−1 Pa
Excerpt: Table 4 presents the results of comparisons in sublimability between exemplified compound RD21 serving as the first guest and compound 1 and between exemplary compound RD30 serving as the first guest and compound 2. As an evaluation of sublimability, comparisons are made of the temperature difference between the sublimation temperature and the decomposition temperature (ΔT=decomposition temperature−sublimation temperature). A larger temperature difference can be said to indicate higher sublimability. With regard to the decomposition temperature, TG/DTA measurement was performed, and the temperature at which a reduction in mass reached 5% was defined as the decomposition temperature. With regard to the sublimation temperature, the sublimation purification was performed by slowly increasing the temperature while allowing Ar to flow at a degree of vacuum of 1×10^−1 Pa, and the temperature at which a sufficient sublimation rate was reached was defined as the sublimation temperature.
With CC(C)(C)c1cc2cc(C(C)(C)C)cc3c4ccc5c6cc7c(-c8ccccc8)c8c9ccc%10c%11cc(C(C)(C)C)cc%12cc(C(C)(C)C)cc(c%13ccc(c8c(-c8ccccc8)c7cc6c6ccc(c(c1)c23)c4c65)c9c%13%10)c%12%11 [Compound 1] the “ΔT = decomposition temperature − sublimation temperature” value was 40 °C. For c1ccc(-c2ccccc2-c2c3cc4c(cc3c(-c3ccccc3)c3c5ccc6c7cccc8cccc(c9ccc(c23)c5c69)c87)c2ccc3c5cccc6cccc(c7ccc4c2c37)c65)cc1 [Exemplified compound RD21], the “ΔT = decomposition temperature − sublimation temperature” value was 100 °C. For c1ccc(-c2ccccc2-c2ccc(-c3ccccc3-c3ccccc3)c3c2-c2ccc4c5ccc6c7c(ccc(c8ccc-3c2c48)c75)-c2c(-c3ccccc3)ccc(-c3ccccc3)c2-6)cc1 [Exemplified compound RD30], the “ΔT = decomposition temperature − sublimation temperature” value was 130 °C. In the case of c1ccc(-c2ccc(-c3ccccc3)c3c2-c2ccc4c5ccc6c7c(ccc(c8ccc-3c2c48)c75)-c2c(-c3ccc4ccccc4c3)ccc(-c3ccc4ccccc4c3)c2-6)cc1 [Compound 2], the “ΔT = decomposition temperature − sublimation temperature” value is reported as 60 °C.
